Results taken from patent US6153587A, “Conformationally constrained LH-RH analogues, their uses and pharmaceutical compositions containing them” (Laboratoire THERAMEX, priority 1996, dated 2000).

The compounds below were run against T1, LH-RH receptors (Rattus norvegicus, UniProt P30969) (assay: Affinity for LH-RH receptors: [125I]-buserelin binding to rat pituitary membranes). Settings: 2 hours at 4° C., 20 to 70 μM [125I]-buserelin, Ki from IC50 by Cheng-Prusoff, read-out: pKi (affinity for LH-RH receptors) (converted).
T1 construct: from tissue; host or cells: rat pituitary membrane fraction (female Sprague Dawley)
T1 sequence (P30969 1-327): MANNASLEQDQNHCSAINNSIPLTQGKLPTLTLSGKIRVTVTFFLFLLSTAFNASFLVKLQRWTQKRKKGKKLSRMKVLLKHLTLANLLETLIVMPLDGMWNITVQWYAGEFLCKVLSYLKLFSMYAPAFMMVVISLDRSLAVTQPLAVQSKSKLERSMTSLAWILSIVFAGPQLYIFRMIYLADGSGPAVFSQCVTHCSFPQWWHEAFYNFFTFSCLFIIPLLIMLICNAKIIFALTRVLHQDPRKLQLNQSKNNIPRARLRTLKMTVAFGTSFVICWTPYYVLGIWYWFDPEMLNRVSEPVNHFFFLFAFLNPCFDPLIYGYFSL
Procedure: This affinity has been determined according to the following method:
Pituitaries from female Sprague Dawley rats were removed and homogenized with a Potter homogenizer in a 25 mM HEPES buffer (pH 7.4) containing 0.32 M sucrose, 100 μg/l PMSF (phenylmethylsulfonylfluoride), 5.6 U/l aprotinin and 10,000 U/l bacitracin. The homogenates were centrifuged at 700 g for 10 minutes and the supernatants were further centrifuged at 12,500 g for 30 minutes. The pellets were homogenized and centrifuged as described above, in the same buffer but without sucrose.
All homogenization, centrifugation and subsequent incubation steps were carried out at 4° C.
The assay was terminated by filtration under suction (Brandel 96-well harvester) through Whatman GF/B glass fiber filters. […] Each compound was tested in at least 4 experiments.
Specific binding data were analysed according to Scatchard's method.
For each test compound, the inhibitory constant (Ki) was calculated from its IC50 according to the Cheng and Prussofs equation: Ki=IC50 /(1+[radioligand]/Kd). Ki was then transformed into pKi (=-log Ki) for final expression of affinity scales.

Row | SMILES | Ki [nM]
1 | CCNC(=O)[C@@H]1CCCN1C(=O)[C@H](CCCNC(=N)N)NC(=O)[C@H](CC(C)C)N1CC[C@@]2(CCCN2C(=O)[C@H](Cc2ccc(O)cc2)NC(=O)[C@H](CO)NC(=O)[C@H](Cc2c[nH]c3ccccc23)NC(=O)[C@H](Cc2c[nH]cn2)NC(=O)[C@@H]2CCC(=O)N2)C1=O [Example 9, pGlu-His-Trp-Ser-Tyr-SPL-Leu-Arg-Pro-NEt] | 1.15
2 | CCNC(=O)[C@@H]1CCCN1C(=O)[C@H](CCCNC(=N)N)NC(=O)[C@H](CC(C)C)N1CC[C@@]2(CCCN2C(=O)[C@H](Cc2ccc(O)cc2)NC(=O)[C@H](CO)NC(=O)[C@H](Cc2c[nH]c3ccccc23)NC(=O)[C@H](Cc2c[nH]cn2)NC(=O)CN(C)C(C)=O)C1=O [Example 10, AcSar-His-Trp-Ser-Tyr-SPL-Leu-Arg-Pro-NEt] | 6.17
3 | CCNC(=O)[C@@H]1CCCN1C(=O)[C@H](CCCNC(=N)N)NC(=O)[C@H](CC(C)C)N1CC[C@@]2(CCCN2C(=O)[C@H](Cc2ccc(O)cc2)NC(=O)[C@H](CO)NC(=O)[C@H](Cc2cccc3ccccc23)NC(=O)[C@H](Cc2c[nH]cn2)NC(=O)[C@@H]2CCC(=O)N2)C1=O [Example 11, pGlu-His-INal-Ser-Tyr-SPL-Leu-Arg-Pro-NEt] | 0.427
4 | CCNC(=O)[C@@H]1CCCN1C(=O)[C@H](CCCNC(=N)N)NC(=O)[C@H](CC(C)C)N1CC[C@@]2(CCCN2C(=O)[C@H](Cc2ccc(O)cc2)NC(=O)[C@H](CO)NC(=O)[C@H](Cc2ccc3ccccc3c2)NC(=O)[C@H](Cc2c[nH]cn2)NC(=O)[C@@H]2CCC(=O)N2)C1=O [Example 12, pGlu-His-Nal-Ser-Tyr-SPL-Leu-Arg-Pro-NEt] | 0.105
5 | CCNC(=O)[C@@H]1CCCN1C(=O)[C@H](CCCNC(=N)N)NC(=O)[C@H](CCC(C)C)N1CC[C@@]2(CCCN2C(=O)[C@H](Cc2ccc(O)cc2)NC(=O)[C@H](CO)NC(=O)[C@H](Cc2c[nH]c3ccccc23)NC(=O)[C@H](Cc2c[nH]cn2)NC(=O)[C@@H]2CCC(=O)N2)C1=O [Example 15, pGlu-His-Trp-Ser-Tyr-SPL-Hol-Arg-Pro-NEt] | 2.29
6 | CCNC(=O)[C@@H]1CCCN1C(=O)[C@H](CCCNC(=N)N)NC(=O)[C@H](CC(C)(C)C)N1CC[C@@]2(CCCN2C(=O)[C@H](Cc2ccc(O)cc2)NC(=O)[C@H](CO)NC(=O)[C@H](Cc2c[nH]c3ccccc23)NC(=O)[C@H](Cc2c[nH]cn2)NC(=O)[C@@H]2CCC(=O)N2)C1=O [Example 16, pGlu-His-Trp-Ser-Tyr-SPL-Npg-Arg-Pro-NEt] | 0.55
7 | CCNC(=O)[C@@H]1CCCN1C(=O)[C@H](CCCNC(=N)N)NC(=O)[C@@H](N1CC[C@@]2(CCCN2C(=O)[C@H](Cc2ccc(O)cc2)NC(=O)[C@H](CO)NC(=O)[C@H](Cc2c[nH]c3ccccc23)NC(=O)[C@H](Cc2c[nH]cn2)NC(=O)[C@@H]2CCC(=O)N2)C1=O)C(C)(C)C [Example 17, pGlu-His-Trp-Ser-Tyr-SPL-Tle-Arg-Pro-NEt] | 1.78
8 | CCCC[C@@H](C(=O)N[C@@H](CCCNC(=N)N)C(=O)N1CCC[C@H]1C(=O)NCC)N1CC[C@@]2(CCCN2C(=O)[C@H](Cc2ccc(O)cc2)NC(=O)[C@H](CO)NC(=O)[C@H](Cc2c[nH]c3ccccc23)NC(=O)[C@H](Cc2c[nH]cn2)NC(=O)[C@@H]2CCC(=O)N2)C1=O [Example 18, pGlu-His-Trp-Ser-Tyr-SPL-Nle-Arg-Pro-NEt] | 2.04
9 | CC(C)C[C@@H](C(=O)N[C@@H](CCCNC(=N)N)C(=O)N1CCC[C@H]1C(=O)NCC(N)=O)N1CC[C@@]2(CCCN2C(=O)[C@H](Cc2ccc(O)cc2)NC(=O)[C@H](CO)NC(=O)[C@H](Cc2c[nH]c3ccccc23)NC(=O)[C@@H](Cc2ccccc2)NC(=O)[C@@H]2CCC(=O)N2)C1=O [Example 20, pGlu-DPhe-Trp-Ser-Tyr-SPL-Leu-Arg-Pro-Gly-NH2] | 4.07

Other lines, results leading:

Row | Ki [nM] | SMILES
10 | 1.05 | CCNC(=O)[C@@H]1CCCN1C(=O)[C@H](CCCNC(=N)N)NC(=O)[C@H](CC(C)C)N1CC[C@@]2(CCCN2C(=O)[C@H](Cc2ccc(O)cc2)NC(=O)[C@H](CO)NC(=O)[C@H](Cc2ccc3ccccc3c2)NC(=O)[C@H](Cc2c[nH]cn2)NC(=O)CN(C)C(C)=O)C1=O [Example 13, AcSar-His-Nal-Ser-Tyr-SPL-Leu-Arg-Pro-NEt]
11 | 9.77 | CC(C)C[C@@H](C(=O)N[C@@H](CCCNC(=N)N)C(=O)N1CCC[C@H]1C(=O)N[C@H](C)C(N)=O)N1CC[C@@]2(CCCN2C(=O)[C@H](Cc2ccc(O)cc2)NC(=O)[C@H](CO)NC(=O)[C@H](Cc2c[nH]c3ccccc23)NC(=O)[C@@H](Cc2ccccc2)NC(=O)[C@@H]2CCC(=O)N2)C1=O [Example 21, pGlu-DPhe-Trp-Ser-Tyr-SPL-Leu-Arg-Pro-DAlaNH2]
12 | 0.891 | CC(=O)N[C@H](Cc1ccc2ccccc2c1)C(=O)N[C@H](Cc1ccc(Cl)cc1)C(=O)N[C@H](Cc1c[nH]c2ccccc12)C(=O)N[C@@H](CO)C(=O)N[C@@H](Cc1ccc(O)cc1)C(=O)N1CCC[C@@]12CCN([C@@H](CC(C)C)C(=O)N[C@@H](CCCNC(=N)N)C(=O)N1CCC[C@H]1C(=O)N[C@H](C)C(N)=O)C2=O [Example 22, AcDNal-DpClPhe-DTrp-Ser-Tyr-SPL-Leu-Arg-Prx)-DAlaNH2]
13 | 0.155 | CC(=O)N[C@H](Cc1ccc2ccccc2c1)C(=O)N[C@H](Cc1ccc(Cl)cc1)C(=O)N[C@H](Cc1cccnc1)C(=O)N[C@@H](CO)C(=O)N[C@@H](Cc1ccc(O)cc1)C(=O)N1CCC[C@@]12CCN([C@@H](CC(C)C)C(=O)N[C@@H](CCCNC(=N)N)C(=O)N1CCC[C@H]1C(=O)N[C@H](C)C(N)=O)C2=O [Example 23, AcDNal-DpClPhe-DPal-Ser-Tyr-SPL-Leu-Arg-Pro-DAlaNH2]
14 | 0.251 | CC(=O)N[C@H](Cc1ccc2ccccc2c1)C(=O)N[C@H](Cc1ccc(Cl)cc1)C(=O)N[C@H](Cc1csc2ccccc12)C(=O)N[C@@H](CO)C(=O)N[C@@H](Cc1ccc(O)cc1)C(=O)N1CCC[C@@]12CCN([C@@H](CC(C)C)C(=O)N[C@@H](CCCNC(=N)N)C(=O)N1CCC[C@H]1C(=O)N[C@H](C)C(N)=O)C2=O [Example 24, AcDNal-DpClPhe-DBal-Ser-Tyr-SPL-Leu-Arg-Pr-DAlaNH2]
15 | 0.245 | CC(=O)N[C@H](Cc1ccc2ccccc2c1)C(=O)N[C@H](Cc1ccc(Cl)cc1)C(=O)N[C@H](Cc1cccnc1)C(=O)N[C@@H](CO)C(=O)N[C@@H](Cc1ccc(O)cc1)C(=O)N1CCC[C@@]12CCN([C@@H](CC(C)(C)C)C(=O)N[C@@H](CCCNC(=N)N)C(=O)N1CCC[C@H]1C(=O)N[C@H](C)C(N)=O)C2=O [Example 25, AcDNal-DpClPhe-DPal-Ser-Tyr-SPL-Npg-Arg-Pro-DAlaNH2]
16 | 0.263 | CC(=O)N[C@H](Cc1ccc2ccccc2c1)C(=O)N[C@H](Cc1ccc(Cl)cc1)C(=O)N[C@H](Cc1cccnc1)C(=O)N[C@@H](CO)C(=O)N[C@@H](CCCCNC(=O)c1cccnc1)C(=O)N1CCC[C@@]12CCN([C@@H](CC(C)(C)C)C(=O)N[C@@H](CCCNC(=N)N)C(=O)N1CCC[C@H]1C(=O)N[C@H](C)C(N)=O)C2=O [Example 26, AcDNal-DpClPhe-DPal-Ser-NicLys-SPL-Npg-Arg-Pro-DAlaNH2]
17 | 0.0977 | CC(=O)N[C@H](Cc1ccc2ccccc2c1)C(=O)N[C@H](Cc1ccc(Cl)cc1)C(=O)N[C@H](Cc1cccnc1)C(=O)N[C@@H](CO)C(=O)N[C@@H](CCCCNC(C)C)C(=O)N1CCC[C@@]12CCN([C@@H](CC(C)(C)C)C(=O)N[C@@H](CCCNC(=N)N)C(=O)N1CCC[C@H]1C(=O)N[C@H](C)C(N)=O)C2=O [Example 27, AcDNal-DpCtPhe-DPal-Ser-IprLys-SPL-Npg-Arg-Pro-DAlaNH2]
18 | 0.309 | CC(=O)N[C@H](Cc1ccc2ccccc2c1)C(=O)N[C@H](Cc1ccc(Cl)cc1)C(=O)N[C@H](Cc1cccnc1)C(=O)N[C@@H](CO)C(=O)N[C@@H](Cc1ccc(O)cc1)C(=O)N1CCC[C@@]12CCN([C@@H](CC(C)(C)C)C(=O)N[C@@H](CCCCNC(C)C)C(=O)N1CCC[C@H]1C(=O)N[C@H](C)C(N)=O)C2=O [Example 28, AcDNal-DpCtPhe-DPal-Ser-Tyr-SPL-Npg-IprLys-Pro-DAlaNH2]
19 | 0.363 | CC(=O)N[C@H](Cc1ccc2ccccc2c1)C(=O)N[C@H](Cc1ccc(Cl)cc1)C(=O)N[C@H](Cc1cccnc1)C(=O)N[C@@H](CO)C(=O)N[C@@H](CCCCNC(=O)c1cccnc1)C(=O)N1CCC[C@@]12CCN([C@@H](CC(C)(C)C)C(=O)N[C@@H](CCCCNC(C)C)C(=O)N1CCC[C@H]1C(=O)N[C@H](C)C(N)=O)C2=O [Example 29, AcDNal-DpClPhe-DPal-Ser-NicLys-SPL-Npg-IprLys-Pro-DAlaNH2]
